Calls of active or inactive are those of the source.
Columns and labels:
[1] = molecular target: T1, Histamine H4 receptor (Rattus norvegicus, UniProt Q91ZY1); assay: Antagonist activity at rat histamine H4 receptor expressed in HEK293 cells assessed as inhibition of histamine-induced intracellular calcium elevation by FLIPR assay; type: functional, cell-based
[2] = system: Liver microsomes; assay: Metabolic stability in rat liver microsomes; type: ADME, Microsome
[3] = Protein binding in human; type: ADME, organism-based; conditions: in vivo, read-out: PB (converted)
[4] = Fractional bioavailability in rat at 5 mg/kg, iv and 5 mg/kg, po; type: ADME, organism-based; conditions: in vivo
[5] = molecular target: Prostaglandin G/H synthase 1 (Homo sapiens) (UniProt P23219); assay: Binding affinity at COX1
[6] = Half life in rat at 10 mg/kg, iv; type: ADME, organism-based; design: dose 10 mg/kg, route intravenous; conditions: in vivo
[7] = molecular target: Kappa-type opioid receptor (Homo sapiens) (UniProt P41145); assay: Binding affinity to kappa opioid receptor
[8] = system: Mus musculus; assay: Inhibition of clobenpropit-induced itching in ip dosed CD1/ICR mouse assessed as blockade of scratching in hind paw for 25 mins pretreated 30 mins before clobenpropit challenge; type: functional
[9] = Terminal volume of distribution in mouse at 5 mg/kg, iv; type: ADME, organism-based; design: dose 5 mg/kg, route intravenous; conditions: in vivo, read-out: Vbeta
[10] = system: Mus musculus; assay: Antiinflammatory activity against ip dosed BALB/c mouse assessed as inhibition of zymosan-induced peritonitis after 2 hrs pretreated 30 mins before zymosan challenge; type: functional
[11] = Ratio of drug level in brain to plasma in rat at 10 mg/kg, iv after 30 mins; type: ADME, organism-based; design: dose 10 mg/kg, route intravenous
[12] = molecular target: Cytochrome P450 2C9 (Homo sapiens, UniProt P11712); assay: Inhibition of CYP2C9 upto 10 uM; type: ADME
[13] = Protein binding in rat; type: ADME, organism-based; conditions: in vivo, read-out: PB (converted)
[14] = system: Rattus norvegicus; assay: Antinociceptive efficacy in spinal nerve ligated Sprague-Dawley rat assessed as reduction of neuropathic pain in left side paw at 100 umol/kg, ip administered 30 mins before testing relative to control; type: functional
[15] = Blood clearance in rat at 10 mg/kg, iv; type: ADME, organism-based; design: dose 10 mg/kg, route intravenous; conditions: whole blood
[16] = system: Rattus norvegicus; assay: Antinociceptive efficacy in rat assessed as inhibition of carrageenan-induced inflammatory pain in paw at 100 umol/kg, ip after 30 mins by hotbox assay relative to control; type: functional
[17] = system: Mus musculus; assay: Blood clearance in mouse at 5 mg/kg, iv; type: ADME, organism-based; design: dose 5 mg/kg, route intravenous; conditions: in vivo
[18] = molecular target: T2, Prostaglandin G/H synthase 2 (Homo sapiens) (UniProt P35354); assay: Binding affinity at COX2
T2 sequence (whole entry): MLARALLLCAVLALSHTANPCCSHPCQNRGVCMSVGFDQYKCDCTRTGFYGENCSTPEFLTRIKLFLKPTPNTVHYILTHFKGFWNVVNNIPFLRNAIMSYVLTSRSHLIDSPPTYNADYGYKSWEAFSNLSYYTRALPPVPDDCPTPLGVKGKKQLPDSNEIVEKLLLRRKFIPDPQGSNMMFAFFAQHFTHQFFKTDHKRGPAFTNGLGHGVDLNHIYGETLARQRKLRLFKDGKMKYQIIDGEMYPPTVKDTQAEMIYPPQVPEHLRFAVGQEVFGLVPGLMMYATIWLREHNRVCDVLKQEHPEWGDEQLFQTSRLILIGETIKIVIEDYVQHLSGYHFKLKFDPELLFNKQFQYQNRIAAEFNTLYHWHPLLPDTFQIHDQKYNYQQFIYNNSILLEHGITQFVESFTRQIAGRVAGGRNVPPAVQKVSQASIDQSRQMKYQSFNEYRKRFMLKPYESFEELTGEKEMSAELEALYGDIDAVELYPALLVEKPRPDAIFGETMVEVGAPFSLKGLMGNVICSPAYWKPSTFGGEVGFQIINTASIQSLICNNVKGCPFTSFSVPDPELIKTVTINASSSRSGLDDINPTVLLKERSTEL

[19] = molecular target: T3, Histamine H4 receptor (Homo sapiens, UniProt Q9H3N8); conditions: HEK293
[20] = Fractional bioavailability in rat at 10 mg/kg, iv and 10 mg/kg, po; type: ADME, organism-based; conditions: in vivo
[21] = Metabolic stability in mouse liver microsomes; type: ADME, Microsome
[22] = molecular target: T1, Histamine H4 receptor; assay: Displacement of [3H]histamine from rat histamine H4 receptor expressed in HEK293 cells; type: cell-based
[23] = molecular target: Cytochrome P450 3A4 (Homo sapiens, UniProt P08684); assay: Inhibition of CYP3A4 upto 10 uM; type: ADME
[24] = Half life in mouse at 5 mg/kg, iv; type: ADME, organism-based; design: dose 5 mg/kg, route intravenous; conditions: in vivo
[25] = molecular target: Cytochrome P450 2D6 (Homo sapiens, UniProt P10635); assay: Inhibition of CYP2D6 upto 10 uM; type: ADME
[26] = molecular target: Cannabinoid receptor 1 (Homo sapiens) (UniProt P21554); assay: Binding affinity to CB1 receptor
[27] = molecular target: Cannabinoid receptor 2 (Homo sapiens) (UniProt P34972); assay: Binding affinity to CB2 receptor
[28] = molecular target: Delta-type opioid receptor (Homo sapiens) (UniProt P41143); assay: Binding affinity to delta opioid receptor
[29] = molecular target: T4, Histamine H4 receptor (Mus musculus, UniProt Q91ZY2); assay: Antagonist activity at mouse histamine H4 receptor expressed in HEK293 cells assessed as inhibition of histamine-induced intracellular calcium elevation by FLIPR assay; type: functional, cell-based
T4 sequence (Q91ZY2 whole entry): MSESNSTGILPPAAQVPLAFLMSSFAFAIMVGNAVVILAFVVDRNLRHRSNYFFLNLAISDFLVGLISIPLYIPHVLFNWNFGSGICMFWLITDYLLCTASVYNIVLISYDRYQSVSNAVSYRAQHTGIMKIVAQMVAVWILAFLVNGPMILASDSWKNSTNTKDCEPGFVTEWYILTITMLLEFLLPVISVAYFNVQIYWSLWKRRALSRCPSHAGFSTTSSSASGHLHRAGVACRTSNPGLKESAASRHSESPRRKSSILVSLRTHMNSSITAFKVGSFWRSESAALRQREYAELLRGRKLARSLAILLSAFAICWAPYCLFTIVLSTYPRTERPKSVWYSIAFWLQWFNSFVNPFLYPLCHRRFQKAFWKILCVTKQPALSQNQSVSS

[30] = Terminal volume of distribution in rat at 10 mg/kg, iv; type: ADME, organism-based; design: dose 10 mg/kg, route intravenous; conditions: in vivo, read-out: Vbeta
[31] = molecular target: Mu-type opioid receptor (Homo sapiens) (UniProt P35372); assay: Binding affinity to mu opioid receptor
[32] = system: Liver microsomes; assay: Metabolic stability in human liver microsomes; type: ADME, Microsome
[33] = system: BMMC; assay: Blockade of histamine-induced morphological changes in BALB/c mouse BMMC by flow cytometry; type: functional, cell-based
[34] = system: Rattus norvegicus; assay: Antinociceptive efficacy in ip dosed rat assessed as inhibition of carrageenan-induced inflammatory pain in paw after 30 mins by hotbox assay; type: functional; conditions: 0.5 h
[35] = system: Rattus norvegicus; assay: Antinociceptive efficacy in ip dosed rat assessed as inhibition of carrageenan-induced inflammatory pain in paw after 30 mins by hotbox assay relative to control; type: functional
[36] = molecular target: T3, Histamine H4 receptor; assay: Displacement of [3H]histamine from human histamine H4 receptor expressed in HEK293 cells; type: cell-based; conditions: read-out: Ki
[37] = Selectivity ratio of Ki for human histamine H4 receptor to Ki for 5HT1A receptor
[38] = system: Rattus norvegicus; assay: Antinociceptive efficacy against complete Freund's adjuvant-induced thermal hyperalgesia in rat assessed as withdrawal threshold at 500 umol/kg, ip after 48 hrs; type: functional
[39] = system: Rattus norvegicus; assay: Antinociceptive efficacy against von Frey hair mechanically stimulated post-surgical pain after skin incision in rat assessed as withdrawal threshold at 500 umol/kg, ip; type: functional
[40] = system: Rattus norvegicus; assay: Antinociceptive efficacy against complete Freund's adjuvant-induced thermal hyperalgesia in rat assessed as withdrawal threshold at 10 umol/kg, ip after 48 hrs; type: functional
[41] = system: Rattus norvegicus; assay: Antinociceptive efficacy against von Frey hair mechanically stimulated post-surgical pain after skin incision in rat assessed as withdrawal threshold at 100 umol/kg, ip; type: functional
[42] = Selectivity ratio of Ki for human histamine H4 receptor to Ki for histamine H1 receptor
[43] = species on record: Homo sapiens; assay: Selectivity ratio of Ki for human histamine H4 receptor to Ki for human histamine H3 receptor
[44] = system: Rattus norvegicus; assay: Antinociceptive efficacy against von Frey hair mechanically stimulated post-surgical pain after skin incision in rat assessed as withdrawal threshold at 10 umol/kg, ip; type: functional
[45] = Selectivity ratio of Ki for human histamine H4 receptor to Ki for adrenergic alpha1 receptor
[46] = system: Rattus norvegicus; assay: Antinociceptive efficacy against complete Freund's adjuvant-induced thermal hyperalgesia in rat assessed as withdrawal threshold at 100 umol/kg, ip after 48 hrs; type: functional
[47] = Selectivity ratio of Ki for human histamine H4 receptor to Ki for histamine H2 receptor
[48] = Selectivity ratio of Ki for human histamine H4 receptor to Ki for 5HT2A receptor
[49] = Selectivity ratio of Ki for human histamine H4 receptor to Ki for dopamine D2 receptor
[50] = system: Rattus norvegicus; assay: Antinociceptive efficacy against complete Freund's adjuvant-induced thermal hyperalgesia in rat assessed as withdrawal threshold at 30 umol/kg, ip after 48 hrs; type: functional
[51] = Selectivity ratio of Ki for human histamine H4 receptor to Ki for 5HT1D receptor
[52] = system: Rattus norvegicus; assay: Antinociceptive efficacy against von Frey hair mechanically stimulated post-surgical pain after skin incision in rat assessed as withdrawal threshold at 30 umol/kg, ip; type: functional

T1 sequence (Q91ZY1 whole entry): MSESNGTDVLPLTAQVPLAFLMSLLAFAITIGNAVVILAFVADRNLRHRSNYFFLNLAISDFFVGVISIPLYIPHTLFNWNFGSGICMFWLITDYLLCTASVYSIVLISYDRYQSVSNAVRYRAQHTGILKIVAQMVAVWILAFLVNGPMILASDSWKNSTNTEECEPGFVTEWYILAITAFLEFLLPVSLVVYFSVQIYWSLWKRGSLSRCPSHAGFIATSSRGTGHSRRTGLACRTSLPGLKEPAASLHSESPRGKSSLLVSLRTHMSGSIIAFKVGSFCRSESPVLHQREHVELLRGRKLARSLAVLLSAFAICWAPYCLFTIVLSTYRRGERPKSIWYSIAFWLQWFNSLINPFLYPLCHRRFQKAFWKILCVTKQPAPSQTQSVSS
T3 sequence (Q9H3N8 whole entry): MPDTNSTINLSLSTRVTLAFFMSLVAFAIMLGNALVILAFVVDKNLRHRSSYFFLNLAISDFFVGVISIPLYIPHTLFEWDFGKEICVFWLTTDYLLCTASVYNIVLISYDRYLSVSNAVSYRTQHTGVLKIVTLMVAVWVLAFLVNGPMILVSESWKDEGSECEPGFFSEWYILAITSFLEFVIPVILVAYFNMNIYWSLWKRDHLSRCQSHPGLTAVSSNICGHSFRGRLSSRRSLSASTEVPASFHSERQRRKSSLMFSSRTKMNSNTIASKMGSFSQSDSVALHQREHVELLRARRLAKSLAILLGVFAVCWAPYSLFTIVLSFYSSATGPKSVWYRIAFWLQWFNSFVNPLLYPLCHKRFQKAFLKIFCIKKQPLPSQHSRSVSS
Sequence of Mu-type opioid receptor (Homo sapiens) (P35372 whole entry): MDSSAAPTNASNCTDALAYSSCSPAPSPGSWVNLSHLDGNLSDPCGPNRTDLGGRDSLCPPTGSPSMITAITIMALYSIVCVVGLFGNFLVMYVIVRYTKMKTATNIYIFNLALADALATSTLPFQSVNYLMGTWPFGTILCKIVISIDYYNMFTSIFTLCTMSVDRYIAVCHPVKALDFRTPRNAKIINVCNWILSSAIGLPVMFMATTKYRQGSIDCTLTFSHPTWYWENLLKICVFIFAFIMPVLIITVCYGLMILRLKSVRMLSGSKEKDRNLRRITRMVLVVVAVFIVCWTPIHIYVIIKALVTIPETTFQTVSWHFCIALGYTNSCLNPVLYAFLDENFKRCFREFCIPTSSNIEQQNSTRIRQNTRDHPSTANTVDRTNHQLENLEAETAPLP
Sequence of Cytochrome P450 2D6 (P10635 whole entry): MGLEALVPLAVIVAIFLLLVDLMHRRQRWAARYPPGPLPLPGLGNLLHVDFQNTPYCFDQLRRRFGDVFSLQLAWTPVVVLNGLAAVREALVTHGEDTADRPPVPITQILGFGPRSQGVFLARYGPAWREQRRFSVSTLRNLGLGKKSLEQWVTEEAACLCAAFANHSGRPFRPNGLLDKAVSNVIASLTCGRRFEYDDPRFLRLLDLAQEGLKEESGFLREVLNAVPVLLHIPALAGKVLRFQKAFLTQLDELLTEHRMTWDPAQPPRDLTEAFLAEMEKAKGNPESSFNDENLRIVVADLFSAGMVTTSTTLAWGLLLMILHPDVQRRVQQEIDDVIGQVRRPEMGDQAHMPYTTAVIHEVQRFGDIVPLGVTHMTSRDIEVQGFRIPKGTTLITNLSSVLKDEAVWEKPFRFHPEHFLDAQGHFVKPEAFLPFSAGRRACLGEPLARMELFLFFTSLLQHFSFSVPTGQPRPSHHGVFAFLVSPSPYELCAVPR
Sequence of Cannabinoid receptor 1 (Homo sapiens) (P21554 whole entry): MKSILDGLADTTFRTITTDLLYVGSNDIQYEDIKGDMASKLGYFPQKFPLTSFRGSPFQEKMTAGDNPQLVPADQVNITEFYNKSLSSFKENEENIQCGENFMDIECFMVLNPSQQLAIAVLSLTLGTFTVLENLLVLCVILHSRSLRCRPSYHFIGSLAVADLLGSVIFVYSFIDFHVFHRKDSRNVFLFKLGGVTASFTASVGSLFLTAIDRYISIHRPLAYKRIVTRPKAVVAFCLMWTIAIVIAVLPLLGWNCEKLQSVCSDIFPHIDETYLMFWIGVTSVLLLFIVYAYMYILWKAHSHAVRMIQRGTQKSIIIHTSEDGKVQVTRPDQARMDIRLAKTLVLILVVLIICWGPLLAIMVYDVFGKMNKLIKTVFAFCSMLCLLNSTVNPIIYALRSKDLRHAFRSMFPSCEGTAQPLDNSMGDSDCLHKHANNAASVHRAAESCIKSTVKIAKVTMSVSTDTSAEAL
Sequence of Cytochrome P450 2C9 (P11712 whole entry): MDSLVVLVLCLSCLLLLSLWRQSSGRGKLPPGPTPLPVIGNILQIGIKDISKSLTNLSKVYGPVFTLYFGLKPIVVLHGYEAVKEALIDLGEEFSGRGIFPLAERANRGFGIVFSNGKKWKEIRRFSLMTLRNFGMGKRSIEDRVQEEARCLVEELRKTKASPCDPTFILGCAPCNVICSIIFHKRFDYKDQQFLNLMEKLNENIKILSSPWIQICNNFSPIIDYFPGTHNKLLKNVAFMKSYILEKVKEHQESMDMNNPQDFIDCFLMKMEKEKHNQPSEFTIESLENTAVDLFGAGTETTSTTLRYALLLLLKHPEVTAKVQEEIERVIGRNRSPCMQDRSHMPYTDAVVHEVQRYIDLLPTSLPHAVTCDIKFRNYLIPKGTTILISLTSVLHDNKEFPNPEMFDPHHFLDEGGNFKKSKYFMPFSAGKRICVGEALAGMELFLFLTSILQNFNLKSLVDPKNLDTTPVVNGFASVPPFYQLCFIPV
Sequence of Prostaglandin G/H synthase 1 (Homo sapiens) (P23219 whole entry): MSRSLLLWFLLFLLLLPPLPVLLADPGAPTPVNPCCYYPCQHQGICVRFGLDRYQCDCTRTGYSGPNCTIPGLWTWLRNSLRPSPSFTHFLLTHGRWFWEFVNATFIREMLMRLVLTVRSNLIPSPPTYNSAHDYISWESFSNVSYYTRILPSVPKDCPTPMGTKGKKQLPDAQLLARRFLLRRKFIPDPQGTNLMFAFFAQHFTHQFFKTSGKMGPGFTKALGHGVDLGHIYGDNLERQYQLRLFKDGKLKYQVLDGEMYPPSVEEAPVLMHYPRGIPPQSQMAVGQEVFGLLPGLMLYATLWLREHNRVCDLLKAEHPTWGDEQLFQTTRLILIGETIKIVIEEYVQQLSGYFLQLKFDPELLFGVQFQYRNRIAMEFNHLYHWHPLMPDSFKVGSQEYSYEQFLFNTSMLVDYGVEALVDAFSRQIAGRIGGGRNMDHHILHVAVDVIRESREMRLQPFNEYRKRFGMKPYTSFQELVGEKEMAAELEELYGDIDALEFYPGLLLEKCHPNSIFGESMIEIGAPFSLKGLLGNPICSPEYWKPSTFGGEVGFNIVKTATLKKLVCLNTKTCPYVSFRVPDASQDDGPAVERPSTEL
Sequence of Cytochrome P450 3A4 (P08684 whole entry): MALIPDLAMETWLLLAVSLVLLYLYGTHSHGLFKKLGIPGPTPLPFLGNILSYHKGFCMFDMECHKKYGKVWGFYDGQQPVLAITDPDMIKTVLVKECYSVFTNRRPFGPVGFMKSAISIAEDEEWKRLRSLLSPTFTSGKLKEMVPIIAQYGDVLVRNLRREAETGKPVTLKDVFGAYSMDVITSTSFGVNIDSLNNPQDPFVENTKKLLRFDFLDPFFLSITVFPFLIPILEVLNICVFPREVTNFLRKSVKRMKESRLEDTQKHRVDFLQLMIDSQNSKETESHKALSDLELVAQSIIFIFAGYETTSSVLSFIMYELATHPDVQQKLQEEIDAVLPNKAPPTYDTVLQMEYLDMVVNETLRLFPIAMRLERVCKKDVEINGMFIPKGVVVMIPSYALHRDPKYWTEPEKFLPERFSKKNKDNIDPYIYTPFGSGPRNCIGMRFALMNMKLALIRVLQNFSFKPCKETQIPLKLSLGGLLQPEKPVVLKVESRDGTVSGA
Sequence of Kappa-type opioid receptor (Homo sapiens) (P41145 whole entry): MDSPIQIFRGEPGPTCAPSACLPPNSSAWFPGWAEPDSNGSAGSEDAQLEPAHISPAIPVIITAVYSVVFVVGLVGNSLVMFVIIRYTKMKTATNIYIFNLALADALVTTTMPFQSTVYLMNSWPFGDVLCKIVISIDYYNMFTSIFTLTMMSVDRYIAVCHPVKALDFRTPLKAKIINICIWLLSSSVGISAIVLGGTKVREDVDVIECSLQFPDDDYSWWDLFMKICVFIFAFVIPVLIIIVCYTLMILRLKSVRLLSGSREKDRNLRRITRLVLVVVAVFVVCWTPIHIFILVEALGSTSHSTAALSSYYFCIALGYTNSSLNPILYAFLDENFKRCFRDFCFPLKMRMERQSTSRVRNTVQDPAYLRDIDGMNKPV
Sequence of Delta-type opioid receptor (Homo sapiens) (P41143 whole entry): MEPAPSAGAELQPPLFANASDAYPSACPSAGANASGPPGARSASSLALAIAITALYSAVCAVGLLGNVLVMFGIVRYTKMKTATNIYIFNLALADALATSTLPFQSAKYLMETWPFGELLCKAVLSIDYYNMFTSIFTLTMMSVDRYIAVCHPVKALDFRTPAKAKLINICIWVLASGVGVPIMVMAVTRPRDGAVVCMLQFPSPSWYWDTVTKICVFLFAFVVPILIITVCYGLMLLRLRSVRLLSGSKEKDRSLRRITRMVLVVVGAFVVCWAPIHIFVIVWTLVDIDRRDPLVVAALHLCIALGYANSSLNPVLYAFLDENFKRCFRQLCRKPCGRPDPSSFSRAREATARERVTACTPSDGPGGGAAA
Sequence of Cannabinoid receptor 2 (Homo sapiens) (P34972 whole entry): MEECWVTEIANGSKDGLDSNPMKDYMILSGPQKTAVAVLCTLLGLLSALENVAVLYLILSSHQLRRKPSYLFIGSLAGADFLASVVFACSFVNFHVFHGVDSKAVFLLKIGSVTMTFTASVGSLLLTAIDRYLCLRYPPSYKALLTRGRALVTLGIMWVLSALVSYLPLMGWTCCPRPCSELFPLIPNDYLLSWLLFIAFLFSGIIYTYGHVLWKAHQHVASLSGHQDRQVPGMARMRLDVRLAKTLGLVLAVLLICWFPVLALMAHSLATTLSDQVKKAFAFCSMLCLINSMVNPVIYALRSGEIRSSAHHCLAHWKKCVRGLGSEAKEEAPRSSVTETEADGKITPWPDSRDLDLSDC

Nc1nc2c(c(N3CC[C@@H](N)C3)n1)CCCc1ccccc1-2
EC50 [1]: 10 nM | Stability [2]: 19 pmol/min/mg | fraction unbound [3]: 0.52 | bioavailability [4]: 90% | Activity [5]: inactive | half-life [6]: 2.6 h | Activity [7]: inactive | ED50 [8]: 33 µmol/kg | Vd [9]: 131 L/kg | ED50 [10]: 34 µmol/kg | Kp at 0.5 h [11]: 2.2 | Activity [12]: Not Active | fraction unbound [13]: 0.45 | Efficacy [14]: 47% | clearance [15]: 323 mL/min/kg | Efficacy [16]: 68% | CL [17]: 1190 mL/min/kg | Activity [18]: inactive | pKb [19]: 8.24 | bioavailability [20]: 34% | Stability [21]: 32.9 pmol/min/mg | Ki [22]: 3.8 nM | Activity [23]: Not Active | half-life [24]: 1.6 h | Activity [25]: Not Active | Activity [26]: inactive | Activity [27]: inactive | Activity [28]: inactive | EC50 [29]: 5.75 nM | Vd [30]: 72.9 L/kg | Activity [31]: inactive | Stability [32]: 13 pmol/min/mg | Activity [33]: Active | ED50 [34]: 72 µmol/kg

O=C(O)Cc1ccccc1Nc1c(Cl)cccc1Cl [DICLOFENAC]
Efficacy [35]: 91%

CN[C@@H]1CCN(c2nc(N)nc3c2CCCc2ccccc2-3)C1
EC50 [1]: 6.61 nM | Stability [2]: 173 pmol/min/mg | Ki [36]: 3.5 nM | fraction unbound [3]: 0.51 | Activity [5]: inactive | Ratio Ki [37]: 460 | Efficacy [38]: 79% | Activity [7]: inactive | ED50 [8]: 235 µmol/kg | ED50 [10]: 100 µmol/kg | Kp at 0.5 h [11]: 3 | Efficacy [39]: 55% | Efficacy [40]: 34% | Activity [12]: Not Active | Efficacy [41]: 69% | Ratio Ki [42]: > 1890 | Ratio Ki [43]: 570 | Efficacy [44]: 9% | fraction unbound [13]: 0.43 | Ratio Ki [45]: 150 | Efficacy [46]: 49% | Ratio Ki [47]: > 1300 | Activity [18]: inactive | pKb [19]: 8.21 | Ratio Ki [48]: 2030 | Ratio Ki [49]: 1820 | Efficacy [50]: 35% | Stability [21]: 29.7 pmol/min/mg | Ki [22]: 5.13 nM | Activity [23]: Not Active | Activity [25]: Not Active | Activity [26]: inactive | Activity [27]: inactive | Activity [28]: inactive | EC50 [29]: 4.37 nM | Activity [31]: inactive | Ratio Ki [51]: 235 | Stability [32]: 20.7 pmol/min/mg | Efficacy [52]: 21% | Activity [33]: Active

Source: ChEMBL document CHEMBL1140165, “Rotationally constrained 2,4-diamino-5,6-disubstituted pyrimidines: a new class of histamine H4 receptor antagonists with improved druglikeness and in vivo efficacy in pain and inflammation models” (J Med Chem, 2008)
